Reference: PubChem BioAssay AID2060599 (Molecular Pharmacology Branch, DTP, NCI, 2025)
“And” between values parts separate entries of the source, which are not always exact repeats. Equal entries are not always repeated.

System: 817829-284-R-J1-PDC complex spheroids, viability
Assay: Anticancer human tumor 817829-284-R-J1-PDC patient-derived colon adenocarcinoma cell line growth inhibition [CLK]
Settings: for viability, T/C: stronger effect = lower value
How it was run: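 Multi-cell-type spheroids combined patient-derived tumor cells with HUVEC endothelial cells and human mesenchymal stem cells. Paired agents were dosed in half-log steps down from about clinical Cmax, or from 10 microM where Cmax was unknown.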

[1] = curve of first compound, second compound 0.0316 µM
[2] = curve of first compound, second compound 0.1 µM
[3] = curve of first compound, second compound 0.316 µM
[4] = curve of first compound, second compound 1 µM
[5] = curve of first compound, second compound 3.16 µM
[6] = curve of first compound, second compound 10 µM
[7] = second compound 0.0316 µM, first compound 0.0316 µM
[8] = second compound 0.0316 µM, first compound 0.1 µM
[9] = second compound 0.0316 µM, first compound 0.316 µM
[10] = second compound 0.0316 µM, first compound 1 µM
[11] = second compound 0.0316 µM, first compound 3.16 µM
[12] = second compound 0.0316 µM, first compound 10 µM
[13] = second compound 0.1 µM, first compound 0.0316 µM
[14] = second compound 0.1 µM, first compound 0.1 µM
[15] = second compound 0.1 µM, first compound 0.316 µM
[16] = second compound 0.1 µM, first compound 1 µM
[17] = second compound 0.1 µM, first compound 3.16 µM
[18] = second compound 0.1 µM, first compound 10 µM
[19] = second compound 0.316 µM, first compound 0.0316 µM
[20] = second compound 0.316 µM, first compound 0.1 µM
[21] = second compound 0.316 µM, first compound 0.316 µM
[22] = second compound 0.316 µM, first compound 1 µM
[23] = second compound 0.316 µM, first compound 3.16 µM
[24] = second compound 0.316 µM, first compound 10 µM
[25] = second compound 1 µM, first compound 0.0316 µM
[26] = second compound 1 µM, first compound 0.1 µM
[27] = second compound 1 µM, first compound 0.316 µM
[28] = second compound 1 µM, first compound 1 µM
[29] = second compound 1 µM, first compound 3.16 µM
[30] = second compound 1 µM, first compound 10 µM
[31] = second compound 3.16 µM, first compound 0.0316 µM
[32] = second compound 3.16 µM, first compound 0.1 µM
[33] = second compound 3.16 µM, first compound 0.316 µM
[34] = second compound 3.16 µM, first compound 1 µM
[35] = second compound 3.16 µM, first compound 3.16 µM
[36] = second compound 3.16 µM, first compound 10 µM
[37] = second compound 10 µM, first compound 0.0316 µM
[38] = second compound 10 µM, first compound 0.1 µM
[39] = second compound 10 µM, first compound 0.316 µM
[40] = second compound 10 µM, first compound 1 µM
[41] = second compound 10 µM, first compound 3.16 µM
[42] = second compound 10 µM, first compound 10 µM
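Further: spheroids exposed to the agents for seven days before readout.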

`CC(C)CC(NC(=O)C(Cc1ccccc1)NC(=O)c1cnccn1)B(O)O` (configuration not stated) was tested, and the viability, T/C (compound 0.000949 µM) was 80.8% and 93.1%, the viability, T/C (compound 0.003 µM) was 4.56% and 1.33% and the viability, T/C (compound 0.00949 µM) was 0.1% and 0.36%. The viability, T/C (compound 0.03 µM) was 0.16% and 0.15%, the viability, T/C (compound 0.0949 µM) was 0.05% and 0.24% and the viability, T/C (compound 0.3 µM) was 0.08% and 0.2%. The IC50 (curve of compound) was 1.51 nM and 1.63 nM.

In the case of `CC(=O)O[C@H]1C(=O)[C@@]2(C)[C@H]([C@H](OC(=O)c3ccccc3)[C@]3(O)C[C@H](OC(=O)[C@H](O)[C@@H](NC(=O)c4ccccc4)c4ccccc4)C(C)=C1C3(C)C)[C@]1(OC(C)=O)CO[C@@H]1C[C@@H]2O`, the viability, T/C (compound 0.0316 µM) is reported as 5.82% and 6.97%, the viability, T/C (compound 0.1 µM) is reported as 4.87% and 7.28% and the viability, T/C (compound 0.316 µM) is reported as 5.22% and 6.91%. The viability, T/C (compound 1 µM) was 5.4% and 7.87%, the viability, T/C (compound 3.16 µM) was 6.88% and 8.37% and the viability, T/C (compound 10 µM) was 6.36% and 7.7%. It also gave an IC50 (curve of compound) of less than 31.6 nM.

In the case of `CCCS(=O)(=O)Nc1ccc(F)c(C(=O)c2c[nH]c3ncc(-c4ccc(Cl)cc4)cc23)c1F`, the viability, T/C (compound 0.0316 µM) is reported as 86.7% and 79.4%, the viability, T/C (compound 0.1 µM) is reported as 48.8% and 64.2% and the viability, T/C (compound 0.316 µM) is reported as 66% and 89%. For the same molecule, the viability, T/C (compound 1 µM) was 54.1% and 77%, the viability, T/C (compound 3.16 µM) was 52.5% and 59.8% and the viability, T/C (compound 10 µM) was 25.3% and 16.9%. The IC50 (curve of compound) was 1210 nM and 4110 nM.

Work on `NC(=O)C(=Cn1cnc(-c2cc(C(F)(F)F)cc(C(F)(F)F)c2)n1)c1cncnc1` yielded a viability, T/C (compound 0.00949 µM) of 69%, a viability, T/C (compound 0.03 µM) of 23.2% and a viability, T/C (compound 0.0949 µM) of 17.2%. For the same molecule, the viability, T/C (compound 0.3 µM) was 8.78%, the viability, T/C (compound 0.949 µM) was 3.63% and the viability, T/C (compound 3 µM) was 2.66%. The IC50 (curve of compound) was 15.7 nM.

Molecule `C=C(F)C(=O)N1CCN(c2nc(OCC3CCCN3C)nc3c2CCN(c2cccc4cccc(Cl)c24)C3)CC1CC#N` (configuration not stated) + CN1CCN(c2cc(C(=O)Nc3cc4cc(-c5cnn(C)c5)ccc4cn3)ccn2)CC1 has an IC50 [1] of 1600 nM, an IC50 [2] of less than 31.6 nM and an IC50 [3] of less than 31.6 nM. The IC50 [4] was less than 31.6 nM, the IC50 [5] was less than 31.6 nM and the IC50 [6] was less than 31.6 nM. The viability, T/C [7] was 79.5%, the viability, T/C [8] was 71.8% and the viability, T/C [9] was 63.4%. It also gave a viability, T/C [10] of 79.5%, a viability, T/C [11] of 16.2% and a viability, T/C [12] of 0.06%. It also gave a viability, T/C [13] of 24.5%, a viability, T/C [14] of 29.8% and a viability, T/C [15] of 16.7%. It also gave a viability, T/C [16] of 22.5%, a viability, T/C [17] of 9.48% and a viability, T/C [18] of 0.04%. The viability, T/C [19] was 2.04%, the viability, T/C [20] was 2.26% and the viability, T/C [21] was 2.74%. It also gave a viability, T/C [22] of 2.59%, a viability, T/C [23] of 0.76% and a viability, T/C [24] of 0.04%. It also gave a viability, T/C [25] of 0.15%, a viability, T/C [26] of 0.11% and a viability, T/C [27] of 0.11%. It also gave a viability, T/C [28] of 0.11%, a viability, T/C [29] of 0.84% and a viability, T/C [30] of 0.05%. For the same molecule, the viability, T/C [31] was 0.2%, the viability, T/C [32] was 0.19% and the viability, T/C [33] was 0.2%. For the same molecule, the viability, T/C [34] was 0.15%, the viability, T/C [35] was 0.11% and the viability, T/C [36] was 0.08%. For the same molecule, the viability, T/C [37] was 0.1%, the viability, T/C [38] was 0.11% and the viability, T/C [39] was 0.19%. It also gave a viability, T/C [40] of 0.21%, a viability, T/C [41] of 0.2% and a viability, T/C [42] of 0.16%.

With `CC(=O)O[C@H]1C(=O)[C@@]2(C)[C@H]([C@H](OC(=O)c3ccccc3)[C@]3(O)C[C@H](OC(=O)[C@H](O)[C@@H](NC(=O)c4ccccc4)c4ccccc4)C(C)=C1C3(C)C)[C@]1(OC(C)=O)CO[C@@H]1C[C@@H]2O` + CNC(=O)c1ccc(Nc2nc(OC3CCCC3)c3c(-c4ccc5nc(C)oc5c4)c[nH]c3n2)c(OC)c1 the IC50 [1] was less than 31.6 nM, the IC50 [2] was less than 31.6 nM and the IC50 [3] was less than 31.6 nM. It also gave an IC50 [4] of less than 31.6 nM, an IC50 [5] of less than 31.6 nM and an IC50 [6] of less than 31.6 nM. For the same molecule, the viability, T/C [7] was 10.8%, the viability, T/C [8] was 11.5% and the viability, T/C [9] was 10.8%. The viability, T/C [10] was 10.6%, the viability, T/C [11] was 11.6% and the viability, T/C [12] was 16.2%. For the same molecule, the viability, T/C [13] was 24.2%, the viability, T/C [14] was 25.3% and the viability, T/C [15] was 20.2%. It also gave a viability, T/C [16] of 23.8%, a viability, T/C [17] of 28.9% and a viability, T/C [18] of 26.8%. For the same molecule, the viability, T/C [19] was 29.5%, the viability, T/C [20] was 31.6% and the viability, T/C [21] was 43.8%. For the same molecule, the viability, T/C [22] was 38.9%, the viability, T/C [23] was 45.1% and the viability, T/C [24] was 32.6%. The viability, T/C [25] was 31.7%, the viability, T/C [26] was 23.7% and the viability, T/C [27] was 24%. It also gave a viability, T/C [28] of 30.4%, a viability, T/C [29] of 22.6% and a viability, T/C [30] of 22.8%. It also gave a viability, T/C [31] of 26.2%, a viability, T/C [32] of 23.9% and a viability, T/C [33] of 17.7%. For the same molecule, the viability, T/C [34] was 20.1%, the viability, T/C [35] was 23.3% and the viability, T/C [36] was 23.3%. For the same molecule, the viability, T/C [37] was 18.6%, the viability, T/C [38] was 23.3% and the viability, T/C [39] was 29.5%. The viability, T/C [40] was 24.3%, the viability, T/C [41] was 20.5% and the viability, T/C [42] was 19.9%.
